# Measurements reported in ChEMBL document CHEMBL1136587, “Optimisation of aryl substitution leading to potent methionyl tRNA synthetase inhibitors with excellent gram-positive antibacterial activity” (Bioorg Med Chem Lett, 2003).
# Key:
# Enterococcus faecalis = assay: In vitro Antibacterial activity of compound against Enterococcus faecalis 1; type: functional
# Staphylococcus aureus [1] = assay: In vitro Antibacterial activity of compound against Staphylococcus aureus Oxford; type: functional
# [2] = target: Methionine--tRNA ligase (Enterococcus faecalis (strain ATCC 700802 / V583)) (UniProt Q837B3); assay: In vitro Antibacterial activity of compound against Enterococcus faecalis; type: functional
# Enterococcus faecium = assay: In vitro Antibacterial activity of compound against Enterococcus faecium
# Staphylococcus aureus [3] = assay: In vitro Antibacterial activity of compound against Staphylococcus aureus
# [4] = system: Staphylococcus epidermidis; assay: In vitro Antibacterial activity of compound against Staphylococcus epidermidis
# [5] = target: Methionine--tRNA ligase (Enterococcus faecalis (strain ATCC 700802 / V583)) (UniProt Q837B3); assay: In vitro Antibacterial activity of compound against Enterococcus faecalis 7; type: functional
# Sequence of Methionine--tRNA ligase (Enterococcus faecalis (strain ATCC 700802 / V583)) (Q837B3 whole entry): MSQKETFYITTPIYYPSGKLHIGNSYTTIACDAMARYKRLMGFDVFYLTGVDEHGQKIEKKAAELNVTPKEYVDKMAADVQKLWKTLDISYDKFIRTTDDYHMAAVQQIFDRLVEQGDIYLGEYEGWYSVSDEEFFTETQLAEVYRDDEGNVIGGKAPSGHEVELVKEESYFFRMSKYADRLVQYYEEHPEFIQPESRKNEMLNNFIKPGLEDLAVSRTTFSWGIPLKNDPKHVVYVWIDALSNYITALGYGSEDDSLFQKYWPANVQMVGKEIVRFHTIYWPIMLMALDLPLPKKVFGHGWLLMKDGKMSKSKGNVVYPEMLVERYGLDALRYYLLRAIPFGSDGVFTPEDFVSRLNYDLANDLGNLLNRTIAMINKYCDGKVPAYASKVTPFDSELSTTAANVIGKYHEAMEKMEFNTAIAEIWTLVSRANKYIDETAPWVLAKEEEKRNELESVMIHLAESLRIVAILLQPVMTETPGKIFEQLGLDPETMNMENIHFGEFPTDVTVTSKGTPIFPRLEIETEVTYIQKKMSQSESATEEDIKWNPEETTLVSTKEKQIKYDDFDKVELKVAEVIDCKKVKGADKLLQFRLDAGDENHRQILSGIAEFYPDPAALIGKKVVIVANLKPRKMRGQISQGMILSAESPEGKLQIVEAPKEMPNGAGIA
MIC (Enterococcus faecalis),MIC (Staphylococcus aureus [1]),MIC90 [2],MIC90 (Enterococcus faecium),MIC90 (Staphylococcus aureus [3]),MIC90 [4],MIC [5],SMILES
8 µg/mL,> 64 µg/mL,–,–,–,–,–,CCOc1c(Br)cc(S(C)(=O)=O)cc1CNCCCNc1cc(O)c2ccccc2n1
0.25 µg/mL,1 µg/mL,–,–,–,–,–,Cc1cc(Br)c2c(c1)C(NCCCNc1cc(O)c3ccccc3n1)CCN2 (stereo unspecified)
> 64 µg/mL,> 64 µg/mL,–,–,–,–,–,CCOc1c(I)cc(CO)cc1CNCCCNc1cc(O)c2ccccc2n1
< 0.06 µg/mL,0.25 µg/mL,0.25 µg/mL,0.06 µg/mL,1 µg/mL,1 µg/mL,–,CCc1cc(I)c2c(c1)C(NCCCNc1cc(=O)c3ccccc3[nH]1)CCN2 (stereo unspecified)
–,0.25 µg/mL,–,–,–,–,< 0.06 µg/mL,Oc1cc(NCCCNCc2cc(Cl)cc(Cl)c2Cl)nc2ccccc12
< 0.06 µg/mL,< 0.06 µg/mL,0.03 µg/mL,< 0.016 µg/mL,0.5 µg/mL,0.5 µg/mL,–,Oc1cc(NCCCNC2CCNc3c(Br)cc(Br)cc32)nc2ccccc12 (stereo unspecified)
< 0.06 µg/mL,0.5 µg/mL,–,–,–,–,–,Cc1cc(Br)cc2c1NCCC2NCCCNc1cc(O)c2ccccc2n1 (stereo unspecified)
8 µg/mL,16 µg/mL,–,–,–,–,–,CCOc1c(CNCCCNc2cc(O)c3ccccc3n2)cc(I)cc1COC
< 0.06 µg/mL,< 0.06 µg/mL,–,–,–,–,–,CCOc1c(C)cc(SC)cc1CNCCCNc1cc(O)c2ccccc2n1
< 0.06 µg/mL,< 0.06 µg/mL,0.5 µg/mL,0.5 µg/mL,0.25 µg/mL,0.25 µg/mL,–,CCOc1c(Br)cc(SC)cc1CNCCCNc1cc(O)c2ccccc2n1
< 0.06 µg/mL,0.13 µg/mL,0.06 µg/mL,0.03 µg/mL,2 µg/mL,2 µg/mL,–,CCOc1c(Br)cc(OC)cc1CNCCCNc1cc(O)c2ccccc2n1
< 0.06 µg/mL,< 0.06 µg/mL,–,–,–,–,–,Oc1cc(NCCCNCc2cc(Br)cc(I)c2)nc2ccccc12
8 µg/mL,32 µg/mL,–,–,–,–,–,CCOC(=O)c1cc(I)cc(CNCCCNc2cc(O)c3ccccc3n2)c1OCC
< 0.06 µg/mL,< 0.06 µg/mL,–,–,–,–,–,CCOc1c(Br)cc(I)cc1CNCCCNc1cc(O)c2ccccc2n1
0.25 µg/mL,0.5 µg/mL,–,–,–,–,–,CCOc1c(C#N)cc(Br)cc1CNCCCNc1cc(O)c2ccccc2n1
< 0.06 µg/mL,< 0.06 µg/mL,–,–,0.25 µg/mL,0.25 µg/mL,–,O=c1cc(NCCCNC2CCOc3c(I)cc(Cl)cc32)[nH]c2ccccc12 (stereo unspecified)
–,2 µg/mL,–,–,–,–,0.5 µg/mL,CC(C)Oc1c(Cl)cc(Cl)cc1CNCCCNc1cc(O)c2ccccc2n1

MIC (Enterococcus faecalis),MIC (Staphylococcus aureus [1]),MIC90 [2],MIC90 (Enterococcus faecium),MIC90 (Staphylococcus aureus [3]),MIC90 [4],MIC [5],SMILES
< 0.06 µg/mL,0.25 µg/mL,–,–,–,–,–,CCOc1c(Cl)cc(OC)cc1CNCCCNc1cc(O)c2ccccc2n1
2 µg/mL,8 µg/mL,–,–,–,–,–,CCOc1c(I)cc(COC)cc1CNCCCNc1cc(O)c2ccccc2n1
< 0.06 µg/mL,2 µg/mL,–,–,–,–,–,CCOc1c(CNCCCNc2cc(O)c3ccccc3n2)cc(I)cc1OC
> 64 µg/mL,> 64 µg/mL,–,–,–,–,–,Oc1cc(NCCCOCc2ccc(Cl)c(Cl)c2)nc2ccccc12
1 µg/mL,0.13 µg/mL,–,–,–,–,–,C=CCc1cc(I)cc(CNCCCNc2cc(O)c3ccccc3n2)c1OCC
0.13 µg/mL,0.5 µg/mL,–,–,–,–,–,CCOc1c(I)cc(OC)cc1CNCCCNc1cc(O)c2ccccc2n1
< 0.06 µg/mL,0.25 µg/mL,–,–,–,–,–,CCc1cc(Br)cc2c1NCCC2NCCCNc1cc(O)c2ccccc2n1 (stereo unspecified)
8 µg/mL,32 µg/mL,–,–,–,–,–,CCOC(=O)c1cc(I)c(OCC)c(CNCCCNc2cc(O)c3ccccc3n2)c1
< 0.06 µg/mL,< 0.06 µg/mL,–,–,–,–,–,Oc1cc(NCCCNC2CCNc3c(Cl)cc(Br)cc32)nc2ccccc12 (stereo unspecified)
< 0.06 µg/mL,1 µg/mL,–,–,–,–,–,CCNc1c(Br)cc(Br)cc1CNCCCNc1cc(O)c2ccccc2n1
0.13 µg/mL,1 µg/mL,–,–,–,–,–,Oc1cc(NCCCNCc2cc(Cl)cc(Cl)c2)nc2ccccc12
> 64 µg/mL,> 64 µg/mL,–,–,–,–,–,Oc1cc(NCCCSCc2ccc(Cl)c(Cl)c2)nc2ccccc12
1 µg/mL,0.5 µg/mL,–,–,–,–,–,CCOc1c(CNCCCNc2cc(O)c3ccccc3n2)cc(Br)cc1SC
< 0.06 µg/mL,0.25 µg/mL,–,–,–,–,–,Oc1cc(NCCCNCc2cc(Br)cc(Br)c2)nc2ccccc12
2 µg/mL,4 µg/mL,–,–,–,–,–,CCOc1c(Br)cc([S+](C)[O-])cc1CNCCCNc1cc(O)c2ccccc2n1 (stereo unspecified)
< 0.06 µg/mL,0.5 µg/mL,–,–,–,–,–,C=CCOc1c(Cl)cc(Cl)cc1CNCCCNc1cc(O)c2ccccc2n1
0.5 µg/mL,2 µg/mL,–,–,–,–,–,CCOc1c(I)cc(C)cc1CNCCCNc1cc(O)c2ccccc2n1
